Assay results: patent publication US20240269135A1, “METHODS OF TREATING BREAST CANCER” (ASTRAZENECA AB, priority 2021, published 2024)

Test system: patients with HER2-negative early breast cancer with BRCA1/2 germline pathogenic/likely pathogenic variants
Experiment: OlympiA randomized double-blind phase 3 trial: invasive-disease-free, distant-disease-free and overall survival (incl. subgroup and sensitivity analyses)
Type: in vivo
Text: We conducted a randomized double-blind phase 3 trial involving patients with HER2-negative early breast cancer with BRCA1/2 germline pathogenic/likely pathogenic variants (gBRCA-P/LP-variant), and high-risk clinico-pathological factors, after local treatment and (neo)adjuvant chemotherapy. […] The primary endpoint was invasive disease-free-survival.
The trial was designed and conducted as a collaborative partnership between the Breast International Group (BIG) and the sponsors NRG Oncology in the United States (US) and AstraZeneca (AZ) outside the US.
Patients eligible for the trial harbored a gBRCA-P/LP variant defined by local or central testing and high-risk, HER2-negative primary breast cancer following definitive local treatment and neoadjuvant or adjuvant chemotherapy. […] Details of gBRCA-P/LP variant screening, local and central gBRCA-P/LP variant testing, and concordance is provided in Figure S2 and Table S2/S3 in Supplementary Appendix. Any gBRCA-P/LP variant eligibility adjudication was conducted by the trial Genetics Advisory Committee. Local estrogen-receptor, progesterone-receptor and HER2 testing results were used for determination of the hormone-receptor status (cut-point for positive was ≥1%) for stratification and for hormone-receptor-positive specific stage criteria for eligibility (details for receptor status central review and concordance for all patients recruited outside China are provided in Supplementary Appendix Tables S4 and S5).
Patients were required to have completed all local therapy including radiotherapy, which interacts with PARP inhibition, at least 2 and not more than 12 weeks before study entry. Patients had completed at least 6 cycles of neoadjuvant or adjuvant chemotherapy containing anthracyclines, taxanes or both agents. Platinum chemotherapy was allowed. Adjuvant bisphosphonates and adjuvant endocrine therapy in patients with hormone-receptor positive disease were given according to institutional guidelines. No chemotherapy after surgery was allowed in patients who received neoadjuvant chemotherapy.
Patients were stratified by hormone-receptor status (positive versus negative), NACT versus ACT and use of platinum chemotherapy for current breast cancer (yes versus no).
Following randomization, medical history and physical examination were performed on a 4-weekly basis for 24 weeks and then 3-monthly through year 2, 6-monthly assessments in years 3 to 5 and annually thereafter. […] Patients had mammogram and/or breast magnetic-resonance-imaging annually.
After a first event, patients were followed for first distant relapse (if not the first event), CNS metastases, loco-regional relapses, contralateral breast cancer, second primary malignancies and survival status.
In accordance with the standardized definitions for efficacy end points (STEEP) system,^21 the primary endpoint of invasive disease-free survival was defined as the time from randomization until the date of first occurrence of one of the following events: ipsilateral invasive breast tumor, locoregional invasive disease, distant recurrence, contralateral invasive breast cancer, second primary invasive cancer or death from any cause. Patients without a documented invasive disease-free survival event were censored at the date they were last known to be disease-free.
Efficacy analyses were based on the intention-to-treat (ITT) population. Survival functions were estimated by Kaplan-Meier method. The stratified Cox proportional-hazards model was used to estimate the hazard ratio and confidence intervals, the comparison of survival between treatment arms was tested by stratified log-rank test. […] Safety was assessed in the population who received at least one dose of study medication.

[1] = ITT, olaparib-group N=921, Kaplan-Meier, median follow-up 2.5 years
[2] = all deaths, ITT, olaparib N=921
[3] = percentage of the 59 deaths in the olaparib-group

Question: What does the source list for `O=C(c1cc(Cc2n[nH]c(=O)c3ccccc23)ccc1F)N1CCN(C(=O)C2CC2)CC1` [Olaparib, 4-[(3-{[4-(cyclopropane-carbonyl)piperazine-1-yl]carbonyl}-4-fluorophenyl)methyl]-2H-phthalazin-1-one]?
Answer: Deaths without a prior IDFS event (ITT, olaparib N=921): 2 no. of patients; IDFS events (ITT, olaparib N=921): 106 no. of patients; Total number of deaths (ITT, olaparib N=921): 59 no. of patients; 3-year distant-disease-free survival [1]: 87.5%; 3-year invasive-disease-free survival [1]: 85.9%; difference in 3-year distant-disease-free survival, olaparib vs placebo (ITT, 95% CI 3.0%, 11.1%): 7.1%; difference in 3-year invasive-disease-free survival, olaparib vs placebo (ITT, 95% CI 4.5%, 13.0%): 8.8%; Invasive disease free survival Events (%) (Overall): 106 (11.5)/178 (19.5) events (%); Primary cause of death: Adverse event [2]: 1 no. of patients; Primary cause of death: Breast cancer [2]: 55 no. of patients; Primary cause of death: Other [2]: 3 no. of patients; Primary cause of death: Adverse event [3]: 1.7%; Primary cause of death: Breast cancer [3]: 93.2%; Primary cause of death: Other [3]: 5.1%; Invasive disease free survival Events (%) (subgroup Age 50-64 years at randomisation): 22 (11.4)/41 (19.5) events (%); Invasive disease free survival Events (%) (subgroup Age < 50 years at randomisation): 79 (11.3)/133 (19.8) events (%); Invasive disease free survival Events (%) (subgroup Age ≥ 65 years at randomisation): 5 (17.2)/4 (12.5) events (%); Invasive disease free survival Events (%) (subgroup BRCA1/2 both with no prior platinum therapy for current breast cancer): 0 (0.0)/0 (0.0) events (%); Invasive disease free survival Events (%) (subgroup BRCA1/2 both with prior platinum therapy for current breast cancer): 0/0 (0.0) events (%); Invasive disease free survival Events (%) (subgroup BRCA1 with no prior platinum therapy for current breast cancer): 43 (11.2)/91 (24.0) events (%); Invasive disease free survival Events (%) (subgroup BRCA1 with prior platinum therapy for current breast cancer): 27 (15.5)/35 (19.6) events (%); Invasive disease free survival Events (%) (subgroup BRCA2 with no prior platinum therapy for current breast cancer): 18 (10.2)/30 (17.8) events (%); Invasive disease free survival Events (%) (subgroup BRCA2 with prior platinum therapy for current breast cancer): 4 (7.5)/8 (20.0) events (%); Invasive disease free survival Events (%) (subgroup BRCA variant type: BRCA1): 70 (12.5)/126 (22.6) events (%); Invasive disease free survival Events (%) (subgroup BRCA variant type: BRCA1/2): 0 (0.0)/0 (0.0) events (%); Invasive disease free survival Events (%) (subgroup BRCA variant type: BRCA2): 22 (9.6)/38 (18.2) events (%); Invasive disease free survival Events (%) (subgroup Bilateral oophorectomy prior to first dose): 14 (7.4)/38 (21.6) events (%); Invasive disease free survival Events (%) (subgroup Ethnicity: Hispanic or Latino): 7 (20.6)/7 (29.2) events (%); Invasive disease free survival Events (%) (subgroup Ethnicity: Not Hispanic or Latino): 88 (10.9)/153 (18.8) events (%); Invasive disease free survival Events (%) (subgroup Ethnicity: Not known, not recorded or refused): 11 (13.4)/18 (22.8) events (%); Invasive disease free survival Events (%) (subgroup Geographic region: Asia Pacific and South Africa): 30 (9.9)/55 (17.2) events (%); Invasive disease free survival Events (%) (subgroup Geographic region: Europe): 62 (12.9)/95 (21.0) events (%); Invasive disease free survival Events (%) (subgroup Geographic region: North America): 11 (9.0)/23 (17.4) events (%); Invasive disease free survival Events (%) (subgroup Geographic region: South America): 3 (18.8)/5 (41.7) events (%); Invasive disease free survival Events (%) (subgroup HR status: HR+/HER2−): 19 (11.3)/25 (15.9) events (%); Invasive disease free survival Events (%) (subgroup HR status: TNBC): 87 (11.6)/153 (20.2) events (%); Invasive disease free survival Events (%) (subgroup HR+/HER2− with adjuvant chemotherapy): 6 (9.4)/5 (7.7) events (%); Invasive disease free survival Events (%) (subgroup HR+/HER2− with neoadjuvant chemotherapy): 13 (12.5)/20 (21.7) events (%); Invasive disease free survival Events (%) (subgroup Jewish descent: No, not of Ashkenazi descent): 100 (11.4)/169 (19.3) events (%); Invasive disease free survival Events (%) (subgroup Jewish descent: Yes, of Ashkenazi descent): 6 (14.6)/9 (25.0) events (%); Invasive disease free survival Events (%) (subgroup No bilateral oophorectomy prior to first dose): 92 (12.6)/140 (18.9) events (%); Invasive disease free survival Events (%) (subgroup No prior platinum/ACT): 28 (7.3)/57 (14.8) events (%); Invasive disease free survival Events (%) (subgroup No prior platinum/HR+/HER2−): 13 (9.3)/22 (16.4) events (%); Invasive disease free survival Events (%) (subgroup No prior platinum/NACT): 44 (15.1)/78 (26.8) events (%); Invasive disease free survival Events (%) (subgroup No prior platinum/TNBC): 59 (11.1)/113 (20.8) events (%); Invasive disease free survival Events (%) (subgroup Primary Study Database: Breast International Group (BIG)): 95 (11.7)/160 (19.9) events (%); Invasive disease free survival Events (%) (subgroup Primary Study Database: NRG Oncology (US)): 11 (9.9)/18 (16.5) events (%); Invasive disease free survival Events (%) (subgroup Prior Chemo: Adjuvant): 36 (7.8)/61 (13.4) events (%); Invasive disease free survival Events (%) (subgroup Prior Chemo: Neoadjuvant): 70 (15.2)/117 (25.4) events (%); Invasive disease free survival Events (%) (subgroup Prior Platinum: No): 72 (10.7)/135 (20.0) events (%); Invasive disease free survival Events (%) (subgroup Prior Platinum: Yes): 34 (13.8)/43 (18.0) events (%); Invasive disease free survival Events (%) (subgroup Prior platinum/ACT): 8 (10.3)/4 (5.7) events (%); Invasive disease free survival Events (%) (subgroup Prior platinum/HR+/HER2−): 6 (21.4)/3 (13.0) events (%); Invasive disease free survival Events (%) (subgroup Prior platinum/NACT): 26 (15.4)/39 (23.1) events (%); Invasive disease free survival Events (%) (subgroup Prior platinum/TNBC): 28 (12.8)/40 (18.5) events (%); Invasive disease free survival Events (%) (subgroup Race: Asian): 25 (9.7)/46 (16.9) events (%); Invasive disease free survival Events (%) (subgroup Race: Black/African-American): 4 (21.1)/5 (17.2) events (%); Invasive disease free survival Events (%) (subgroup Race: Other): 2 (11.8)/3 (20.0) events (%); Invasive disease free survival Events (%) (subgroup Race: White): 75 (12.0)/124 (20.7) events (%); Invasive disease free survival Events (%) (subgroup TNBC adjuvant cohort, pN status at surgery: Node negative): 13 (6.4)/22 (11.5) events (%); Invasive disease free survival Events (%) (subgroup TNBC adjuvant cohort, pN status at surgery: Node positive): 15 (8.6)/31 (17.5) events (%); Invasive disease free survival Events (%) (subgroup TNBC with adjuvant chemotherapy): 30 (7.6)/56 (14.4) events (%); Invasive disease free survival Events (%) (subgroup TNBC with neoadjuvant chemotherapy): 57 (16.1)/97 (26.4) events (%); Invasive disease free survival Events (%) (subgroup breast surgery prior to randomisation: Breast conservation): 20 (9.0)/46 (19.2) events (%); Invasive disease free survival Events (%) (subgroup post neoadjuvant group: CPS + EG score of 2, 3 or 4): 55 (13.8)/96 (24.8) events (%); Invasive disease free survival Events (%) (subgroup post neoadjuvant group: CPS + EG score of 5 or 6): 11 (50.0)/10 (66.7) events (%); Invasive disease free survival Events (%) (subgroup prior chemotherapy: Anthracycline and taxane regimen): 101 (11.6)/168 (19.8) events (%); Invasive disease free survival Events (%) (subgroup prior chemotherapy: Anthracycline regimen (without taxane)): 0 (0.0)/2 (15.4) events (%); Invasive disease free survival Events (%) (subgroup prior chemotherapy: Taxane regimen (without Anthracycline)): 5 (11.6)/8 (15.4) events (%)
